Assay results taken from patent US20030113312A1, “Skin barrier function and cohesion through enhanced stratum corneum acidification” (The Regents of the University of California, priority 2001, published 2003).
“And” between values parts separate entries of the source, which are not always exact repeats. Identical values can stand only once.

Columns and labels:
[1] = system: hairless mice skin (stratum corneum); test: Stratum corneum integrity: TEWL after sequential tape stripping; format: in vivo, mouse
Procedure: The mice were anesthetized with chloral hydrate (Morton Grove Pharmaceuticals, Morton Grove, Ill., USA). […] After 15 minutes, barrier function was determined by measurement of transepidermal water loss (TEWL) with an electrolytic water analyzer (MEECO®, Warrington, Pa.). […] Individually tested sites were covered with Hilltop Chambers (HtC, nominal volume 200 mL), which were reapplied following each indvidual measurement.
The stratum corneum was removed by several strippings with adhesive tape (Tesa, Beiersdorf, Germany) inducing an increase in TEWL rates above baseline (from 0.2 to approximately 7-9 g/m^2/h). Two sites were prepared on each animal, and TEWL and surface pH were measured at 0, 2, 5 and 24 hrs following the stripping and the applications of inhibitors.

Murine skin = details: 4 mg/mL topical in propylene glycol:ethanol; cited from earlier work
[2] = system: hairless mice skin (stratum corneum); test: Barrier function by transepidermal water loss (TEWL); format: in vivo, mouse
Procedure: Animals: Male hairless mice (Skh1/Hr, Charles River Laboratories, Wilmington, Mass.), 8-12 weeks old, were fed Purina mouse diet and water ad libitum. […] Each litter was genotyped separately. Functional experiments were performed on animals aged 6-10 weeks.
The mice were anesthetized with chloral hydrate (Morton Grove Pharmaceuticals, Morton Grove, Ill., USA). After 3 hours immersion at 37° C., the mice were removed, and the remaining buffer was gently blotted off. After 15 minutes, barrier function was determined by measurement of transepidermal water loss (TEWL) with an electrolytic water analyzer (MEECO®, Warrington, Pa.). Surface pH was measured with a flat, glass surface electrode from Mettler-Toledo (Giessen, Germany), attached to a pH meter (Skin pH Meter PH 900, Courage & Khazaka, Cologne, Germany). Individually tested sites were covered with Hilltop Chambers (HtC, nominal volume […]), which were reapplied following each indvidual measurement.

[3] = system: desmosomes in the lower stratum corneum; test: Desmosome density by microscopy and desmoglein-1 immunostaining; format: in vivo, mouse; details: for density of desmosomes in lower stratum corneum and at SC-SG interface: inhibitor-treated murine skin vs controls
From the text: Ultrastructural methods: Freshly obtained biopsies from mouse skin were fixed directly in modified Karnovsky's fixative, postfixed with reduced osmium tetroxide (OS04) and then imbedded in an Epon-epoxy mixture. For visualization of lipid-enriched, lamellar bilayer structures, some samples were post fixed in ruthenium tetroxide (RuO4). Sections were cut on a Reichert Ultracut E microtome, counterstained with uranyl acetate and lead citrate, and viewed in a Zeiss 10 CR electron microscope, operated at 60 kV.
Immunofluorescence Staining: Hairless mouse skin was excised with a 6 mm punch biopsy, and the subcutaneous fat was removed. Tissue sections were incubated for 1 hour in blocking buffer (1% bovine serum albumin, 0.1% cold water fish gelatin in phosphate buffered saline (PBS)), and were then incubated for 1 hour further at room temperature with 1:500 dilution of polyclonal rabbit anti-mouse desmoglein 1 antibody (gift of Dr. John Stanley, University of Pennsylvania) diluted in blocking buffer. The tissue was then washed with blocking buffer and incubated one hour at room temperature with floroscien-labeled, isothiocyanate-conjugated, goat anti-rabbit IgG antibody (DAKO, Carpinteria, Calif., USA), diluted in blocking buffer. Either preincubation of DSG 1 antibody with DSG 1-recombinant protein (gift of Dr. Masayuki Amagai, Keio University, Tokyo, Japan), or omission of the DSG 1 primary antibody eliminated specific staining. Tissue sections then were washed with PBS and coverslipped before visualization under confocal microscope (Leica TCS SP, Heidlberg, Germany) using FITC at an excitation wavelength of 494 nm and an emisson wavelength of 518 nm.
To further investigate the changes in stratum corneum cohesion that are brought about by application of secretory phospholipase A2 inhibitors, BPB and MJ33 treated samples of murine skin and the corresponding untreated controls, were assessed by immunohistochemical staining and confocal microscopy. […]

[4] = system: hairless mice skin (stratum corneum); test: Skin surface pH after topical treatment or buffer exposure; format: in vivo, mouse; details: for pH of the stratum corneum: BPB alone, three days
Procedure: Animals: Male hairless mice (Skh1/Hr, Charles River Laboratories, Wilmington, Mass.), 8-12 weeks old, were fed Purina mouse diet and water ad libitum. […] Functional experiments were performed on animals aged 6-10 weeks.
The mice were anesthetized with chloral hydrate (Morton Grove Pharmaceuticals, Morton Grove, Ill., USA). After 3 hours immersion at 37° C., the mice were removed, and the remaining buffer was gently blotted off. After 15 minutes, barrier function was determined by measurement of transepidermal water loss (TEWL) with an electrolytic water analyzer (MEECO®, Warrington, Pa.). Surface pH was measured with a flat, glass surface electrode from Mettler-Toledo (Giessen, Germany), attached to a pH meter (Skin pH Meter PH 900, Courage & Khazaka, Cologne, Germany). Individually tested sites were covered with Hilltop Chambers (HtC, nominal volume 200 mL), which were reapplied following each indvidual measurement.

[5] = system: hairless mice skin (stratum corneum); test: Stratum corneum cohesion: protein removed per D-Squame stripping; format: in vivo, mouse; details: after three days of inhibitor treatment alone; vehicle about 5
Procedure: Before stripping the stratum corneum, the skin surface was cleaned with a single ethanol wipe. D-Squame tapes then were placed sequentially to the test areas for about 3 sec each, removed with forceps, and stored in glass scintillation vials at 5° C.
The protein content per stripping was determined with the Bio-Rad protein assay kit. […] Each tape was incubated with 1 M NaOH for 1 hour at 37° C. in an incubator shaker at 80 rpm, and neutralized thereafter with 1 mL of 1 M HCl in the scintillation vials. Subsequently, 0.2 mL of this solution was incubated in 0.6 ml distilled water plus 0.2 mL of the Bio-Rad protein dye for 5 minutes in boroscillate tubes. […] An empty D-Squame tape, as well as distilled water incubated with Bio-Rad dye, served as negative controls. The amount of calculated protein was then normalized to skin surface area (μg/cm^2).

Row | SMILES | TEWL rate after three consecutive tape strips ([1]; day 3 of inhibitor treatment alone, vehicle closer to 40) [g/m^2/h] | toxicity of the dose employed to Murine skin (Murine skin) | fold increase in TEWL rates ([2]; by day three, vs vehicle) | TEWL rate ([2]; repeated applications, day three, vs vehicle 2.97+/-0.16, p<0.001) | density of desmosomes in lower stratum corneum and at SC-SG interface [3] | stratum corneum surface pH ([4]; MJ33 4 mg/mL topical, vs vehicle 5.60+/-0.05, p=0.0023) | TEWL rate after fifth tape strip ([1]; after three days of inhibitor treatment alone, vehicle close to 25) | TEWL rate after second tape strip ([1]; after three days of inhibitor treatment alone, vehicle closer to 5) [g/m^2/h] | protein removed, first D-Squame strip [5] | TEWL rate ([2]; 4 mg/mL topical twice daily, day 2, vehicle closer to 2.5) [g/m^2/h] | TEWL rate ([2]; 4 mg/mL topical twice daily, day three, vehicle near 3) [g/m^2/h] | density of DSG1 positive clusters ([3]; laser confocal microscopy, treated vs vehicle stratum corneum) | pH of the stratum corneum ([4]; comparator of the linoleic acid co-application) | pH of the stratum corneum ([4]; comparator of the palmitic acid co-application) | pH of the stratum corneum ([4]; comparator of the stearic acid co-application) | pH of the skin ([4]; hairless mice, 4 mg/mL topical twice daily, after one day, starting value about pH 5.6) [pH] | final average pH of treated sites ([4]; hairless mice, 4 mg/mL topical twice daily, day 3, vehicle close to pH 5.4) [pH]
1 | CCCCCCCCCCCCCCCCOCC(COCC(F)(F)F)OP(=O)(O)OC (stereo not shown) [MJ33, One-hexadecyl-3-triflouroethylglycero-sn-2-phosphomethanol] | ~75 | non-toxic | 2-3 fold | 5.19+/−0.81 | dramatic reduction | 5.87+/−0.06 |  |  |  |  |  |  |  |  |  |  | 
2 | O=C(CBr)c1ccc(Br)cc1 [BPB, bromphenacyl bromide] |  | non-toxic |  |  | dramatic reduction |  | ~90 g/m^2/h and 80-100 g/m^2/h | ~20 | about 20 μg/cm^2 | ~6 | ~11 | decline dramatically | 6.28+/−0.1 | 5.92+/−0.05 | 6.17+/−0.08 | ~6.0 | ~6.4
